Data: the NIST ThermoML archive (doi:10.1021/acs.jced.9b00057)

Experiment: wn = mass fraction of the nth substance listed
Details: 298 K, 100 kPa, Liquid; for mass density: Vibrating tube method

CCCCCCCCCC(=O)[O-].CCCCCCCCCCCCCC[P+](CCCCCC)(CCCCCC)CCCCCC [trihexyltetradecylphosphonium decanoate] + O
Details | viscosity [mPa·s]
Cone and plate viscometry, w2 = 0.162 | 96.1

Details | mass density [kg/m3]
w2 = 0.162 | 900

CCCC(=O)O [butanoic acid] + O
Details | mass density [kg/m3]
w1 = 6.86e-05 | 997.07
w1 = 0.000154 | 997.07
w1 = 0.000352 | 997.09
w1 = 0.000628 | 997.08
w1 = 0.000783 | 997.12
w1 = 0.00206 | 997.2
w1 = 0.0023 | 997.22
w1 = 0.00429 | 997.33
w1 = 0.00704 | 997.57
w1 = 0.00763 | 997.62
w1 = 0.0151 | 998.25
w1 = 0.0157 | 998.3
w1 = 0.0285 | 999.62
w1 = 0.0453 | 1001.89
w1 = 0.0508 | 1002.79
w1 = 0.0589 | 1004.25
w1 = 0.073 | 1000.5
w1 = 0.087 | 1001.01
w1 = 0.0974 | 1014.17
